Source: US7560121B1 (LTS Lohmann Therapie-Systeme AG, priority 1999, dated 2009)
Counter-ions that a name gives are not always drawn.

Experiments:
[1] = Solubility of fluphenazine dihydrochloride in poly(meth)acrylate pressure-sensitive adhesives; format: physicochemical
Excerpt: Addition of Eudragit E100 (Röhm Pharma GmbH) was therefore provided for in all cases. This poly-(meth)acrylate has trialkylamino groups in its lateral chain and is capable of functioning as an ion-exchange resin. In this way, the chloride ions of the fluphenazine dihydrochloride are bonded to Eudragit E100 while protons are accepted simultaneously, with fluphenazine being formed as a free base in a certain equilibrium. Advantageous is an at least equimolar ratio of Eudragit E100 and fluphenazine dihydrochloride, i.e. of amounts by weight having the same equivalent weight calculated as potassium hydroxide.

[2] = In vitro skin permeation through human epidermis (modified Franz cell, HPLC); format: in vitro ADME; settings: 32° C., Oppanol-based matrix with Eudragit E100 and oleic acid, n=3
Method: Skin permeability was examined in vitro using full thickness cow udder skin and human epidermis, the latter having been separated from human full-thickness skin by heat separation.
The tests were carried out at 32° C. in a suitable permeation device (modified Franz cell), and fluphenazine was measured in the resultant samples using a suitable HPLC method. All indicated values are based on n=3 samples.

[3] = in vivo; cited from earlier work

| solubility in Durotak 387-2051 ([1]; with addition of Eudragit E100) | solubility in Durotak 387-2287 ([1]; with addition of Eudragit E100) | solubility in poly(meth)acrylate adhesive polymers or the organic solvents required for processing ([1]; without Eudragit E100, result in words) | maximum flow rate of fluphenazine base [2] [μg/h·cm^2] | Structure (SMILES) | half-life in blood plasma [3] [h] |
| --- | --- | --- | --- | --- | --- |
| at least 15 %-wt. | at least 10 %-wt. | almost insoluble |  | OCCN1CCN(CCCN2c3ccccc3Sc3ccc(C(F)(F)F)cc32)CC1 [fluphenazine dihydrochloride] |  |
|  |  |  | 2.9 | OCCN1CCN(CCCN2c3ccccc3Sc3ccc(C(F)(F)F)cc32)CC1 [fluphenazine] | 15 |
